Test results taken from patent publication US4352811A, “3-(1-Substituted-4-piperidyl)-1,2-benzisoxazoles” (Hoechst-Roussel Pharmaceuticals Inc., priority 1981, dated 1982).
Where a name gives a salt, the structure may show the parent alone. Read-outs that look alike come from different tables or passages of the source.

System: apomorphine climbing
Test: Neuroleptic activity in the climbing mice assay (apomorphine-induced climbing)
Format: in vivo, mice (CK-1 male)
Conditions: Mus musculus, ip, intraperitoneal 30 min before apomorphine 1.5 mg/kg s.c., climbing scored at 10, 20 and 30 min, linear regression
Experimental: The subject CK-1 male mice (23-27 grams) are group-housed under standard laboratory conditions. The mice are individually placed in wire mesh stick cages (4"×4" by 10") and are allowed one hour for adaptation and exploration of the new environment.
For evaluation of climbing, 3 readings are taken at 10, 20 and 30 minutes after apomorphine administration according to the following scale: […]
Mice consistently climbing before the injection of apormorphine will be discarded.
With full-developed apomorphine climbing, the animals are hanging onto the cage walls, rather motionless, over longer periods of time. By contrast, climbs due to mere motor stimulation usually only last a few seconds.
The climbing scores are individually totaled (maximal score: 6 per mouse over 3 readings) and the total score of the control group (vehicle intraperitoneally--apomorphine subcutaneously) is set to 100%.

[1] = read-out: NEUROLEPTIC ACTIVITY (ED50 mg/kg)

SMILES	ED50 [1]	ED50 (read-out: N[…] (ED50 mg/kg))
Cl.O=C(CCCN1CCC(c2noc3cc(Cl)ccc23)CC1)c1ccc(F)cc1 [3-[1-(4-Fluorobenzoylpropyl)-4-piperidyl]-6-chloro-1,2-benzisoxazole hydrochloride]	0.27 mg/kg	–
Fc1ccc2c(CCCN3CCC(c4noc5ccc(F)cc45)CC3)noc2c1 [3-[1-(6-Fluoro-1,2-benzisoxazol-3-propyl)-4-piperidyl]-5-fluoro-1,2-benzisoxazole hydrochloride]	3.4 mg/kg	–
COc1ccc2onc(C3CCN(CCCc4noc5cc(F)ccc45)CC3)c2c1 [3-[1-(6-Fluoro-1,2-benzisoxazole-3-propyl)-4-piperidyl]-5-methoxy-1,2-benzisoxazole hydrobromide]	7.23 mg/kg	–
O=c1[nH]c2ccccc2n1CCCN1CCC(c2noc3ccccc23)CC1 [3-{1,3-dihydro-2-oxo-2H-benzmidazol-1-ylpropyl]-4-piperidyl}-1,2-benzisoxazole]	0.36 mg/kg	–
Br.O=c1[nH]c2ccccc2n1CCN1CCC(c2noc3ccccc23)CC1 [3-{1-[1,3-Dihydro-2-oxo-2H-benzimidazol-1-ylethyl]-4-piperidyl}1,2-benzisoxazole hydrobromide]	7.7 mg/kg	–
Fc1ccc(C(CCCN2CCC(c3noc4ccc(F)cc34)CC2)c2ccc(F)cc2)cc1 [3-{1-[4,4-bis-Fluorophenyl)-1-butyl]-4-piperidyl}-5-fluoro-1,2-benzisoxazole hydrochloride]	1.6 mg/kg	–
Cc1[nH]c2ccccc2c1CCCN1CCC(c2noc3cc(F)ccc23)CC1 [3-{3-[4-(6-Fluoro-1,2-benzisoxazol-3-yl)piperidyl]propyl}-2-methylindole]	0.16 mg/kg	–
Cl.Fc1ccc(C(CCCN2CCC(c3noc4cc(Cl)ccc34)CC2)c2ccc(F)cc2)cc1 [6-Chloro-3{1-[4,4-bis(4-fluorophenyl)-1-butyl]-4-piperidyl}-1,2-benzisoxazole hydrochloride]	6.4 mg/kg	–
Fc1ccc(C(CCCN2CCC(c3noc4cc(F)ccc34)CC2)c2ccc(F)cc2)cc1 [6-Fluoro-3-{1-[4,4-bis(4-fluorophenyl)-1-butyl]-4-piperidyl]-1,2-benzisoxable hydrobromide]	0.58 mg/kg	–
O=C(CCCN1CCC(O)(c2ccc(Cl)cc2)CC1)c1ccc(F)cc1 [haloperidol, reference compound]	–	0.11 mg/kg
CCN1CCCC1CNC(=O)c1cc(S(N)(=O)=O)ccc1OC (centres unmarked) [sulpiride, reference compound]	14.5 mg/kg	–
